Assay results taken from patent US10434199B2, “Picolinate cross-bridged cyclams, chelates with metallic cations and use thereof” (UNIVERSITÉ DE BRETAGNE OCCIDENTALE, priority 2013, dated 2019).

Test: Potentiometric titrations: stability constants and pM of Zn^2+ complexes
Assay type: physicochemical
Protocol: Equipment and work conditions. The potentiometric setup has been described in Roger, M. et al. Inorg. Chem. 2013, 52, 5246-5259. The titrant was a KOH solution prepared at ca. 0.1 M from a commercial ampoule of analytical grade, and its accurate concentration was obtained by application of the Gran's method upon titration of a standard HNO3 solution (Rossotti, F. J. and Rossotti, H. J. J. Chem. Educ. 1965, 42, 375-378). Ligand solutions were prepared at about 2.0×10^−3 M, and the Cu^2+ and Zn^2+ solutions at ca. 0.05 M from analytical grade nitrate salts and standardized by complexometric titrations with H4edta (ethylenediaminetetraacetic acid). Sample solutions for titration contained approximately 0.04 mmol of ligand in a volume of 30 mL where the ionic strength was kept at 0.10 M using KNO3 as background electrolyte. Metal cations were added at 0.9 equiv. of the ligand amount in complexation titrations. Batch titrations were prepared in a similar way but with each titration point corresponding to 1/10 of the amount of a conventional titration sample. Batch titration points were incubated in tightly closed vials at 25° C. until potential measurements attained complete stability, which happened within a week.
Measurements. All measurements were carried out at 25.0±0.1° C. under inert atmosphere. The electromotive force of the sample solutions was measured after calibration of the electrodes by titration of a standard HNO3 solution at 2.0×10^−3 M in the work conditions. The [H^+] of the solutions was determined by measurement of the electromotive force of the cell, E=E^o′+Q log [H^+]+Ej. The term pH is defined as −log [H^+]. E^o′ and Q were determined from the acid region of the calibration curves. Deviations from the Nernst law at very low pH (pH<2.5) were corrected with the VLpH software (Calibration software from the maker of Hyperquad available for free at http://www.hyperquad.co.uk/), which performs a [H^+] correction based on a very low pH calibration procedure. The liquid-junction potential, Ej, was otherwise found to be negligible for pH >2.5 under the experimental conditions used. […] Each titration consisted of 80-100 equilibrium points in the range of pH 2.5-11.5 (or 1.5-11.5 for Cu^2+ complexations), and at least two replicate titrations were performed for each particular system.
Calculations. The potentiometric data were refined with the Hyperquad software, and speciation diagrams were plotted using the HySS software. The overall equilibrium constants βi^H and βMmHhL1 are defined by βMmHhL1=[MmHhLl]/[M]^m[H]^h[L]^l (βi^H=[HhLl]/[H]^h[L]^l and βML-1L=βML(OH)×Kw). Differences in log units between the values of protonated (or hydrolysed) and non-protonated constants provide the stepwise (log K) reaction constants (being KMmHhL1=[MmHhLl]/[MmHh-1Ll][H]). The errors quoted are the standard deviations calculated by the fitting program from all the experimental data for each system.
The stability constants of the complexes formed by Hcb-te1pa with Cu^2+ and Zn^2+ were determined by potentiometric titrations in aqueous solution at 25.0° C. in 0.10 M KNO3 ionic strength (Table 2).
The equilibrium of formation of the copper(II) and especially the zinc(II) complexes is slow in the acidic pH range. In the case of Cu^2+, the complexation is almost complete from low pH but relatively slow up to pH=4. To overcome this double problem, conventional titrations were performed at pH values below 2 in order to observe a significant percentage of free metal ion (at least 18%) and thus allow for determination of the corresponding stability constant, while giving the solution enough time to reach equilibrium prior to the start of the titration. During titrations, each experimental point included a supplementary equilibration time in order to yield fully stabilized measurements. […]

Which results are given for `O=C(O)c1cccc(CN2CCCN3CCNCCCN(CC3)CC2)n1` [Hcb-te1pa, 6-(1,4,8,11-tetraazabicyclo[6.6.2]hexadecan-4-ylmethyl)picolinic acid]?
log KMLHh, ZnLOH + H^+ ⇌ ZnL (25.0° C., I = 0.10M KNO3): 11.33 log units; log KMLHh, Zn^2+ + L ⇌ ZnL (25.0° C., I = 0.10M KNO3): 18.83 log units; log βMLHh, Zn^2+ + L ⇌ ZnL (25.0° C., I = 0.10M KNO3): 18.83(6) log units; log βMLHh, Zn^2+ + L ⇌ ZnLOH + H^+ (25.0° C., I = 0.10M KNO3): 7.50(7) log units; c) inertness vs Zn: log K[ZnL] (overview table): 18.83; c) inertness vs Zn: pZn (overview table, calculated pM): 8.50; Calculated pM, Zn^2+ (pH = 7.4, 100% excess of ligand, [M^2+]tot = 1 × 10^−5 M): 8.50
